Test results reported in ChEMBL document CHEMBL1136973, “Structure-activity relationships of heteroaromatic esters as human rhinovirus 3C protease inhibitors” (Bioorg Med Chem Lett, 2009).
Calls of active or inactive are those of the source. The calls are words filed in the database; no cut-off is given here.

Molecular target: Replicase polyprotein 1ab (Severe acute respiratory syndrome-related coronavirus, UniProt P0C6X7)
Assay: Inhibition of SARS coronavirus isolate Tor2 3C-like protease by FRET assay

Structure (SMILES)	IC50 [nM]
O=C(Oc1cccnc1)c1cccs1	500

Molecular target: Genome polyprotein (rhinovirus A16) (UniProt Q82122)
Sequence (Q82122 whole entry): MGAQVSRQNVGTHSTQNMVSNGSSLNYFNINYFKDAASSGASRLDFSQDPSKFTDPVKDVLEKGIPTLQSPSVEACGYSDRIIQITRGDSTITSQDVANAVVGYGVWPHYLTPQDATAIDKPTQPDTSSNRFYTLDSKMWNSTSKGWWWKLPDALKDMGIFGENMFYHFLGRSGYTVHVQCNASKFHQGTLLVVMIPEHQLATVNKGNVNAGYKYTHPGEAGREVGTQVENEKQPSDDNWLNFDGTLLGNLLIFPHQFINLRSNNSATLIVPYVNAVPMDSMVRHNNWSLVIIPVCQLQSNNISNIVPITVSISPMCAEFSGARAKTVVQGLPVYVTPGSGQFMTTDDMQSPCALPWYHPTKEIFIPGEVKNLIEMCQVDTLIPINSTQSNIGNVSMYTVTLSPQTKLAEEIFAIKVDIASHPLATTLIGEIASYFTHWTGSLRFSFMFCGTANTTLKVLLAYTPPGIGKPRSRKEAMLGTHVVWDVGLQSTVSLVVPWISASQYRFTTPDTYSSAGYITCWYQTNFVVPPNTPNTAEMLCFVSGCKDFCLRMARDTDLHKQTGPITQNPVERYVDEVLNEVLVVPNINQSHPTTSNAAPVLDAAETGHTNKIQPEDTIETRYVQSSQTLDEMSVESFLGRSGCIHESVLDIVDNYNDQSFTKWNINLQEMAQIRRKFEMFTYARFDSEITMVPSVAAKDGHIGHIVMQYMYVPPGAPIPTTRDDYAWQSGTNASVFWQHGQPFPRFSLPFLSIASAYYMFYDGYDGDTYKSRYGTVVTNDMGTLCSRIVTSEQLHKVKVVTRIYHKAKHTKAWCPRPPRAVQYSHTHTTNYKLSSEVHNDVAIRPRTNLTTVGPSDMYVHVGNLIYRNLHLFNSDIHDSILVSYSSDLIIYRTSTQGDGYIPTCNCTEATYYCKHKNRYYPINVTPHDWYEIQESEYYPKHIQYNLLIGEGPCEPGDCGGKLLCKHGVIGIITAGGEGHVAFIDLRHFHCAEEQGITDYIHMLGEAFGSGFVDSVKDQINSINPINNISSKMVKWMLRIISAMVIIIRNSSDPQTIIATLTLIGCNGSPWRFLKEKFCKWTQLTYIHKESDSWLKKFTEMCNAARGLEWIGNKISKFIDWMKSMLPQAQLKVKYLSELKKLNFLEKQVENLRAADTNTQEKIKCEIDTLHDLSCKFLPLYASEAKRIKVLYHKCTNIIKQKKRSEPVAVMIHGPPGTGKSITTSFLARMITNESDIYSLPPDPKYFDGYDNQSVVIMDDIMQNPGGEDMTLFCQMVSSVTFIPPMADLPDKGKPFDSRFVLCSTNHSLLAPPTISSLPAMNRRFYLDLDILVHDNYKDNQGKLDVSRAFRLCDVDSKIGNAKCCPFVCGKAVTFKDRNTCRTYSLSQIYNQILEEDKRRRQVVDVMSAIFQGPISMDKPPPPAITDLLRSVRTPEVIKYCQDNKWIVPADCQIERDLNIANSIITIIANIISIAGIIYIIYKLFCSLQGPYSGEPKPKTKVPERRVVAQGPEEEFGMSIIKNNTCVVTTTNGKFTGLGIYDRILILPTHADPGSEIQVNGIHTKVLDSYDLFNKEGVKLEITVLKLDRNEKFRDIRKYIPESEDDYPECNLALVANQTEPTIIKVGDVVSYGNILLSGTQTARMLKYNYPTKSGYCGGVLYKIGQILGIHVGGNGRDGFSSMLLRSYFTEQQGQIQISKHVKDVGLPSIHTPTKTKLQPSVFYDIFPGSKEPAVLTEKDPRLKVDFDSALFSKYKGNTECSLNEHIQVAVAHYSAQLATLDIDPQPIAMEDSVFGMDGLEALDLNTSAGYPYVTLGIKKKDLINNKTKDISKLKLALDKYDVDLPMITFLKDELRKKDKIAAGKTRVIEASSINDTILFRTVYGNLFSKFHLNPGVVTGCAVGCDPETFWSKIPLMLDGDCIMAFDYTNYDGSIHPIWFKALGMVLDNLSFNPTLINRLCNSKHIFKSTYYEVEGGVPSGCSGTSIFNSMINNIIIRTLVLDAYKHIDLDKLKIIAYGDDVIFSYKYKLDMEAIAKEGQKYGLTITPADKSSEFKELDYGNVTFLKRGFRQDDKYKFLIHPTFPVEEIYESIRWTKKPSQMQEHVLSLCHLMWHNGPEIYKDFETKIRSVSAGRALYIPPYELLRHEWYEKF
Assay: Inhibition of HRV-16 protease 3C expressed in Escherichia coli BL21(DE3) at 10 uM by FRET assay

Structure (SMILES)	inhibition [%]
NC(=O)c1ccc(OC(=O)c2ccco2)cc1	21

Molecular target: Genome polyprotein (rhinovirus A16) (UniProt Q82122)
Assay: Inhibition of HRV-16 protease 3C expressed in Escherichia coli BL21(DE3) at 1 uM by FRET assay

Structure (SMILES)	inhibition
CCOc1nc(-c2ccc3ccccc3c2)oc1C(=O)Oc1cncc(Cl)c1	34%
O=C(Oc1cncc(Cl)c1)c1ccco1	87%
O=C(Oc1cncc(Cl)c1)c1cn(-c2ccc(C(F)(F)F)cc2)cn1	40%
Cc1cc(C(=O)Oc2cncc(Cl)c2)no1	inactive
O=C(Oc1cc(Cl)cnc1O)c1ccco1	inactive
O=C(Oc1cncc(Cl)c1)c1cccc2ccccc12	75%
O=C(Oc1cccnc1C(=O)O)c1ccco1	inactive
O=C(Oc1cc(=O)[nH]c2ccccc12)c1ccco1	98%
NC(=O)c1ccc(OC(=O)c2ccco2)cc1	5%
O=C(Oc1cncc(Cl)c1)c1cccs1	64%
O=C(/C=C/c1ccccc1)Oc1cncc(Br)c1	63%
O=C(Oc1cncc(Cl)c1)c1ccc(-c2ccc([N+](=O)[O-])cc2)o1	60%
CCOc1nc(C(c2ccccc2)c2ccccc2)oc1C(=O)Oc1cncc(Cl)c1	5%
NC(=O)c1cccc(OC(=O)c2ccco2)c1	5%
NC(=O)c1ncccc1OC(=O)c1ccco1	14%
Nc1ncccc1OC(=O)c1ccco1	24%

Structure (SMILES)	inhibition
CCOc1nc(/C=C/c2ccccc2)oc1C(=O)Oc1cncc(Cl)c1	87%
O=C(Oc1cccnc1)c1ccco1	8%
O=C(Oc1ccncc1)c1ccco1	inactive
O=C(Oc1cncc(Cl)c1)c1c[nH]cn1	82%
O=C(Oc1cncc(Br)c1)c1ccco1	90%
CCOc1nc(Cc2ccccc2)oc1C(=O)Oc1cncc(Cl)c1	5%
O=C(Oc1cncc(Cl)c1)c1ccc(-c2ccc(Cl)cc2)o1	89%
O=C(Oc1cccnc1O)c1ccco1	inactive
O=C(Oc1cncc(Cl)c1)c1ccccc1	59%
Cc1ccc(-c2ccc(C(=O)Oc3cncc(Cl)c3)o2)cc1	79%
CCOc1nc(-c2ccccc2)oc1C(=O)Oc1cncc(Cl)c1	inactive
O=C(Oc1ccccn1)c1ccco1	inactive
O=C(Oc1cncc(Cl)c1)c1ccc2ccccc2c1	80%
O=C(Oc1cncc(Cl)c1)c1ccc(-c2ccccc2)o1	80%
O=C(CCc1ccccc1)Oc1cncc(Br)c1	34%

Molecular target: Genome polyprotein (rhinovirus A16, UniProt Q82122)
Sequence (Q82122 1511-1693 limits assumed): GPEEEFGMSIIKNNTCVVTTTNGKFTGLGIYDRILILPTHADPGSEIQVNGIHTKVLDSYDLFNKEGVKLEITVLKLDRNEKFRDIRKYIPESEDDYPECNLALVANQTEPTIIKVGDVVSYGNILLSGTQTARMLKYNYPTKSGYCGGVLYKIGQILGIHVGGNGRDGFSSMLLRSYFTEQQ
Assay: Inhibition of HRV-16 protease 3C expressed in Escherichia coli BL21(DE3) by FRET assay

Structure (SMILES)	IC50 [nM]
O=C(Oc1cncc(Cl)c1)c1cnc[nH]1	290
O=C(Oc1cc(=O)[nH]c2ccccc12)c1ccco1	200
CCOc1nc(/C=C/c2ccccc2)oc1C(=O)Oc1cncc(Cl)c1	690
O=C(Oc1cncc(Br)c1)c1ccco1	80
O=C(Oc1cncc(Cl)c1)c1ccc2ccccc2c1	710
